From US3950387A, “Cysteine derivatives” (Recherches Pharmaceutiques et Scientifiques, priority 1972, dated 1976)
Structures can show the parent of a compound that is named as a salt.

Assays:
[1] = test system: atheromatic deposits in the aorta; assay: Effect on atheromatic deposits in the aorta (visual examination, scale 0 to 5) in cholesterol-fed rabbits; format: in vivo, rabbit (male albino Bouscat); settings: for Extent of atheromatic deposit: rabbit; for Activity ranking (anti-atheromatic): conclusion over both tests in rabbits
Excerpt: (§1) 2. Effect on atheromatic deposits in the aorta and on plasma cholesterol in the rabbit
(§2) In order to create atheromatic lesions experimentally, male albino Bouscat rabbits having an average weight of 2.5 kg are fed on a Provende UAR rabbit diet plus 1 or 2% of cholesterol.
(§3) At the end of 11 to 12 weeks, the animals are sacrificed by having their carotid arteries cut after being anaesthetised with Nembutal and the aorta is removed from lowermost point to the iliac fork, cut open longitudinally and spread out upon a cork board. After fixing with formaldehyde and staining with a 2% aqueous solution of acid fuchsin, pearly white atheromatic spots are apparent against the red background which enables the extent of the deposit to be evaluated quantitatively on a scale from 0 to 5 with 0 corresponding to an absence of lesions and 5 to diffuse lipid deposits covering the whole of the endothelium.
(§4) In a first test, 60 male rabbits each weighing 2.5 kg are fed on the diet detailed below:
(§5) 5 weeks : diet containing 2% of cholesterol
(§6) 3 weeks : diet containing 1% of cholesterol
(§7) From the beginning the animals are divided into 6 batches of 10 animals each which respectively receive, for the whole duration of the diet, the following products for 5 days per week by the digestive route using an oesophagal probe:
(§8) All the products are administered in suspension in the same volume of gum arabic (5 ml).
(§9) At the end of 12 weeks, visual examination of the atheromatic lesions in the aorta gave the results shown in Table II, the numerical data giving the average extent of deposit in each batch.
(§10) In a second test, using the same experimental method, the two following derivatives were studied in the doses indicated below: […]

aortic cholesterol = assay: Aortic cholesterol in cholesterol-fed rabbits (Folch extraction, Liebermann-Burchard method); format: in vivo, rabbit (male albino Bouscat); settings: rabbit
Excerpt: as §1, §2, §3
After the inside layers of the wall of the aorta have been separated, all the lipids are extracted by the method of Folch et at. The amount of cholesterol is then determined using the Liebermann-Burchard method.
as §4, §5, §6, §7, §8, §9, §10

plasma cholesterol = assay: Plasma cholesterol in cholesterol-fed rabbits (Pearson method, Technicon auto-analyser); format: in vivo, rabbit (male albino Bouscat); settings: rabbit
Protocol: as §1, §2
Moreover, a check on the plasma cholesterol is carried out at regular intervals during the test using the Pearson method as adopted to the Technicon auto-analyser by Boy, Bonnafe and Mazet (Applicant's own method).
as §4, §5, §6, §7, §8, §9, §10

[2] = Toxicity: maximum tolerated dose in the mouse, oral route; settings: in vivo
[3] = Solubility in the standard solvents; format: physicochemical; settings: all the standard solvents
[4] = first test, 200 mg/kg oral (oesophagal probe), 5 days per week, 12 weeks, scale 0 (no lesions) to 5 (diffuse deposits), batch average, diet only 3.5
[5] = first test, 200 mg/kg oral (oesophagal probe), 5 days per week, 12 weeks, diet only 20.43
[6] = first test, 200 mg/kg oral (oesophagal probe), 5 days per week, 12 weeks, diet only 1.47
[7] = second test, 50 mg/kg, same experimental method, scale 0 to 5, diet only 4
[8] = second test, 50 mg/kg, same experimental method, diet only 22.1
[9] = second test, 50 mg/kg, same experimental method, diet only 2.5

SMILES: N[C@@H](CSCC=Cc1ccccc1)C(=O)O [LJ 536, L β-(3-phenyl-propen-2-ylthio) α-amino propanoic acid]
- Extent of atheromatic deposit [1, 4]: 2.05
- Aortic cholesterol (aortic cholesterol; [5]): 12.21 mg/kg
- Plasma cholesterol (plasma cholesterol; [6]): 1.2 g/L
- MTD [2]: 4000 mg/kg

SMILES: CC(=Cc1ccccc1)CCSC[C@H](N)C(=O)O [LJ 540, L β-(4-phenyl-3-methylbuten-3-ylthio) α-aminopropanoic acid]
- Extent of atheromatic deposit [1, 4]: 2.60
- Aortic cholesterol (aortic cholesterol; [5]): 15.00 mg/kg
- Plasma cholesterol (plasma cholesterol; [6]): 1.29 g/L
- MTD [2]: ≥ 10000 mg/kg

SMILES: C=CCSC[C@H](NC(=O)CC[C@H](N)C(=O)O)C(=O)NCC(=O)O [LJ 545, L γ-glutamyl-S-allylcysteinyl glycine]
- Extent of atheromatic deposit [1, 4]: 2.70
- Aortic cholesterol (aortic cholesterol; [5]): 14.38 mg/kg
- Plasma cholesterol (plasma cholesterol; [6]): 1.36 g/L
- MTD [2]: ≥ 10000 mg/kg

SMILES: N[C@@H](CSCc1cccnc1)C(=O)O [LJ 546, L β-[(pyridyl-3)methylthio]α-amino propanoic acid]
- Activity ranking (anti-atheromatic) [1]: the most active
- Extent of atheromatic deposit [1, 4]: 1.85
- Aortic cholesterol (aortic cholesterol; [5]): 10.72 mg/kg
- Plasma cholesterol (plasma cholesterol; [6]): 0.99 g/L
- MTD [2]: 9000 mg/kg

SMILES: CC(SC[C@H](N)C(=O)O)c1ccc(Cl)cc1 (stereo partly drawn) [LJ 550, L β-[1-(p-chlorophenyl)ethylthio]α-amino propanoic acid]
- Activity ranking (anti-atheromatic) [1]: the most active
- Extent of atheromatic deposit [1, 4]: 2
- Aortic cholesterol (aortic cholesterol; [5]): 11.90 mg/kg
- Solubility [3]: practically insoluble in all the standard solvents
- Plasma cholesterol (plasma cholesterol; [6]): 1.17 g/L
- MTD [2]: 4000 mg/kg

SMILES: CC(C)=CCC/C(C)=C/CSC[C@H](N)C(=O)O [LJ 558, S-geranylcysteine]
- MTD [2]: 8000 mg/kg

SMILES: C=CCSC[C@H](N)C(=O)OCC [LJ 565, Ethyl L β-(propen-2-ylthio) α-amino propanoate hydrochloride]
- Activity ranking (anti-atheromatic) [1]: the most active
- Extent of atheromatic deposit [1, 7]: 2.3
- Aortic cholesterol (aortic cholesterol; [8]): 15 mg/kg
- Plasma cholesterol (plasma cholesterol; [9]): 2.1 g/L
- MTD [2]: 1500 mg/kg

SMILES: C=CCSC[C@H](N)C(=O)OC(C)C [LJ 566, Isopropyl L β-(propen-2-ylthio) α-aminopropanoate hydrochloride]
- Activity ranking (anti-atheromatic) [1]: the most active
- Extent of atheromatic deposit [1, 7]: 2.8
- Aortic cholesterol (aortic cholesterol; [8]): 17.3 mg/kg
- Plasma cholesterol (plasma cholesterol; [9]): 2.3 g/L
- MTD [2]: 1500 mg/kg
